Experimental data reported in PMC4830392 (Biochemical pharmacology, 2015).

Molecular target: OXE receptor (Felis catus, UniProt A0ABI7XKF2)
Assay: actin polymerization
Type: cell-based

OXE receptor, sequence (A0ABI7XKF2 1-379): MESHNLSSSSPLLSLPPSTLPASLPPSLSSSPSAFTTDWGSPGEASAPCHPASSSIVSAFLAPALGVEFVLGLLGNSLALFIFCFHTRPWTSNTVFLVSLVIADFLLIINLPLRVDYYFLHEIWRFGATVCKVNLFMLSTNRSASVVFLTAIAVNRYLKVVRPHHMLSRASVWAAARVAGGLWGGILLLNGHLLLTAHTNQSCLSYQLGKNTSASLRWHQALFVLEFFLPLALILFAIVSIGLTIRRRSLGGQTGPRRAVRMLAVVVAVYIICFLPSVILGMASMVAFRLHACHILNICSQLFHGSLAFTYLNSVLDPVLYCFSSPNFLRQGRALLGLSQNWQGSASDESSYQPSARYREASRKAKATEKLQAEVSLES

EC50: 0.72 nM
SMILES: CCCCC/C=C\C/C=C\C/C=C\C=C\C(=O)CCCC(=O)O [5-oxo-ETE, 5-oxo-6E,8Z,11Z,14Z-eicosatetraenoic acid]
